Source: US4751302A, “Indazole derivatives” (priority 1982, dated 1988)

Key:
in vivo = details: mouse, ip, intraperitoneal, hydrochloride, male ddy mice
[1] = system: Carrageenin edema in rat's paw; assay: Carrageenin Edema Test in Rat's Paw (anti-inflammatory activity, Table 1); format: in vivo; details: 100 mg/kg oral, hydrochloride, rat
Procedure: An anti-inflammatory activity was measured by orally administering 100 mg/kg of a hydrochloride of the indazole derivative of this invention as set forth in Table 1 to an animal in accordance with the standard method of Carrageenin Edema Test in Rat's Paw described in C. A. Winter et al., Proc. Soc. Exp. Biol. Med., 111, 544 (1962).

CCN(CC)CCCNc1nn(CCCN(CC)CC)c2cc(O)ccc12 [(121), 1-(3-Diethylaminopropyl)-3-(3-diethylaminopropylamino)-6-hydroxyindazole]
LD50 (in vivo): 251 mg/kg | inhibition in vivo at 100 mg/kg [1]: 21%

Clc1ccc2[nH]nc(NCCCN3CCCC3)c2c1 [(65), 3-(3-Pyrrolidinopropylamino)-5-chloroindazole]
LD50 (in vivo): 136 mg/kg | inhibition in vivo at 100 mg/kg [1]: 36%

CCN(CC)CCCNc1nn(CCCN(CC)CC)c2ccc(OC)cc12 [(94), 1-(3-Diethylaminopropyl)-3-(3-diethylaminopropylamino)-5-methoxyindazole]
LD50 (in vivo): 301 mg/kg | inhibition in vivo at 100 mg/kg [1]: 30%

CCN(CC)CCCNc1nn(CCC(C)N(C)C)c2ccc(Cl)cc12 (centres unmarked) [(108), 1-(3-Dimethylaminobutyl)-3-(3-diethylaminopropylamino)-5-chloroindazole]
LD50 (in vivo): 118 mg/kg | inhibition in vivo at 100 mg/kg [1]: 30%

CC(CCNc1n[nH]c2ccc(O)cc12)N1CCCCC1 (centres unmarked) [(79), 3-(3-Piperidinobutylamino)-5-hydroxyindazole]
LD50 (in vivo): 146 mg/kg | inhibition in vivo at 100 mg/kg [1]: 46%

OC1CCN(CCCNc2nn(CCCN3CCOCC3)c3ccccc23)CC1 [(158), 1-(3-Morpholinopropyl)-3-[3-(4-hydroxypiperidino)propylamino]indazole]
LD50 (in vivo): 288 mg/kg | inhibition in vivo at 100 mg/kg [1]: 30%

CCN(CC)CCCNc1nn(CCCN(CC)CC)c2ccc(I)cc12 [(123), 1-(3-Diethylaminopropyl)-3-(3-diethylaminopropylamino)-5-iodoindazole]
LD50 (in vivo): 291 mg/kg | inhibition in vivo at 100 mg/kg [1]: 27%

CC(CCn1nc(NCCC(C)N2CCCCC2)c2cc(Cl)ccc21)N(C)C (centres unmarked) [(110), 1-(3-Dimethylaminobutyl)-3-(3-piperidinobutylamino)-5-chloroindazole]
LD50 (in vivo): 293 mg/kg | inhibition in vivo at 100 mg/kg [1]: 28%

CN1CCN(CCCNc2nn(CCCN3CCCC3)c3ccc(O)cc23)CC1 [(144), 1-(3-Pyrrolidinopropyl)-3-[3-(4-methylpiperazino)propylamino]-5-hydroxyindazole]
LD50 (in vivo): 281 mg/kg | inhibition in vivo at 100 mg/kg [1]: 26%

CCN(CC)CCCNc1nn(CCCN(CC)CC)c2ccc(O)cc12 [(120), 1-(3-Diethylaminopropyl)-3-(3-diethylaminopropylamino)-5-hydroxyindazole]
LD50 (in vivo): 269 mg/kg | inhibition in vivo at 100 mg/kg [1]: 28%

Oc1ccc2[nH]nc(NCCCN3CCCCCC3)c2c1 [(85), 3-(3-Homopiperidinopropylamino)-5-hydroxyindazole]
LD50 (in vivo): 135 mg/kg | inhibition in vivo at 100 mg/kg [1]: 35%

Nc1nn(CCCN2CCCCC2)c2ccc(Cl)cc12 [(11), 1-(3-Piperidinopropyl)-3-amino-5-chloroindazole]
LD50 (in vivo): 211 mg/kg | inhibition in vivo at 100 mg/kg [1]: 54%

CCN(CC)CCCNc1nn(CCCN(CC)CC)c2c(N)cc(N)cc12 [(125), 1-(3-Diethylaminopropyl)-3-(3-diethylaminopropylamino)-5,7-diaminoindazole]
LD50 (in vivo): 320 mg/kg | inhibition in vivo at 100 mg/kg [1]: 28%

Oc1ccc2[nH]nc(NCCCCCCN3CCCCC3)c2c1 [(78), 3-(6-Piperidinohexylamino)-5-hydroxyindazole]
LD50 (in vivo): 225 mg/kg | inhibition in vivo at 100 mg/kg [1]: 25%

CCN(CC)CCCNc1nn(CCCN(CC)CC)c2cccc(O)c12 [(119), 1-(3-Diethylaminopropyl)-3-(3-diethylaminopropylamino)-4-hydroxyindazole]
LD50 (in vivo): 271 mg/kg | inhibition in vivo at 100 mg/kg [1]: 29%

CCN(CC)CCCNc1n[nH]c2ccc(C)cc12 [(51), 3-(3-Diethylaminopropylamino)-5-methylindazole]
LD50 (in vivo): 231 mg/kg | inhibition in vivo at 100 mg/kg [1]: 60%

CCN(CC)CCCNc1nn(CCCN(CC)CC)c2cc(Cl)ccc12 [(91), 1-(3-Diethylaminopropyl)-3-(6-diethylaminopropylamino)-6-chloroindazole]
LD50 (in vivo): 251 mg/kg | inhibition in vivo at 100 mg/kg [1]: 22%

CC(CCNc1nn(CCC(C)N2CCCCC2)c2ccc(Cl)cc12)N(C)C (centres unmarked) [(107), 1-(3-Piperidinobutyl)-3-(3-dimethylaminobutylamino)-5-chloroindazole]
LD50 (in vivo): 231 mg/kg | inhibition in vivo at 100 mg/kg [1]: 22%

Nc1nn(CCCCCCN2CCCCC2)c2ccc(O)cc12 [(34), 1-(6-Piperidinohexyl)-3-amino-5-hydroxyindazole]
LD50 (in vivo): 231 mg/kg | inhibition in vivo at 100 mg/kg [1]: 26%

CCN(CC)CCCNc1nn(CCCN2CCCCC2)c2ccc(Cl)cc12 [(100), 1-(3-Piperidinopropyl)-3-(3-diethylaminopropylamino)-5-chloroindazole]
LD50 (in vivo): 281 mg/kg | inhibition in vivo at 100 mg/kg [1]: 30%

OC1CCN(CCCNc2n[nH]c3ccc(Cl)cc23)CC1 [(61), 3-[3-(4-Hydroxypiperidino)propylamino]-5-chloroindazole]
LD50 (in vivo): 210 mg/kg | inhibition in vivo at 100 mg/kg [1]: 46%

CCCCN(CCCC)CCCn1nc(N)c2cc(O)ccc21 [(30), 1-(3-Di-n-butylaminopropyl)-3-amino-5-hydroxyindazole]
LD50 (in vivo): 255 mg/kg | inhibition in vivo at 100 mg/kg [1]: 54%

CC1CCCC(C)N1CCCn1nc(N)c2cc(O)ccc21 (centres unmarked) [(38), 1-[3-(2,6-Dimethylpiperidino)propyl]-3-amino-5-hydroxyindazole]
LD50 (in vivo): 278 mg/kg | inhibition in vivo at 100 mg/kg [1]: 31%

CCN(CC)CCCNc1n[nH]c2cc(O)ccc12 [(69), 3-(3-Diethylaminopropylamino)-6-hydroxyindazole]
LD50 (in vivo): 151 mg/kg | inhibition in vivo at 100 mg/kg [1]: 51%

CCCCN(CCCC)CCCNc1nn(CCCN(CC)CC)c2ccc(Cl)cc12 [(98), 1-(3-Diethylaminopropyl)-3-(3-di-n-butylaminopropylamino)-5-chloroindazole]
LD50 (in vivo): 286 mg/kg | inhibition in vivo at 100 mg/kg [1]: 32%

CCN(CC)CCCNc1n[nH]c2c(I)cccc12 [(72), 3-(3-Diethylaminopropylamino)-7-iodoindazole]
LD50 (in vivo): 253 mg/kg | inhibition in vivo at 100 mg/kg [1]: 53%

c1ccc2c(NCCN3CCOCC3)n[nH]c2c1 [(154), 3-(2-Morpholinoethylamino)indazole]
LD50 (in vivo): 351 mg/kg | inhibition in vivo at 100 mg/kg [1]: 50%

CCN(CC)CCCn1nc(N)c2cc(Cl)ccc21 [(2), 1-(3-Diethylaminopropyl)-3-amino-5-chloroindazole]
LD50 (in vivo): 192 mg/kg | inhibition in vivo at 100 mg/kg [1]: 55%

Nc1nn(CCCN2CCOCC2)c2ccccc12 [(149), 1-(3-Morpholinopropyl)-3-aminoindazole]
LD50 (in vivo): 261 mg/kg | inhibition in vivo at 100 mg/kg [1]: 50%

CCN(CC)CCCn1nc(N)c2cc(OC)ccc21 [(6), 1-(3-Diethylaminopropyl)-3-amino-5-methoxyindazole]
LD50 (in vivo): 188 mg/kg | inhibition in vivo at 100 mg/kg [1]: 56%

CC(CCn1nc(NCCCN2CCCCC2)c2cc(O)ccc21)N(C)C (centres unmarked) [(139), 1-(3-Dimethylaminobutyl)-3-(3-piperidinopropylamino)-5-hydroxyindazole]
LD50 (in vivo): 249 mg/kg | inhibition in vivo at 100 mg/kg [1]: 28%

CCN(CC)CCCNc1nn(CCCN(CC)CC)c2c(I)cccc12 [(124), 1-(3-Diethylaminopropyl)-3-(3-diethylaminopropylamino)-7-iodoindazole]
LD50 (in vivo): 313 mg/kg | inhibition in vivo at 100 mg/kg [1]: 29%

CC1CCCC(C)N1CCCn1nc(N)c2cc(Cl)ccc21 (centres unmarked) [(16), 1-[3-(2,6-Dimethylpiperidino)propyl]-3-amino-5-chloroindazole]
LD50 (in vivo): 214 mg/kg | inhibition in vivo at 100 mg/kg [1]: 33%

Nc1nn(CCCN2CCCC2)c2ccc(O)cc12 [(43), 1-(3-Pyrrolidinopropyl)-3-amino-5-hydroxyindazole]
LD50 (in vivo): 211 mg/kg | inhibition in vivo at 100 mg/kg [1]: 36%

CCN(CC)CCCn1nc(N)c2cc(N)ccc21 [(5), 1-(3-Diethylaminopropyl)-3,5-diaminoindazole]
LD50 (in vivo): 311 mg/kg | inhibition in vivo at 100 mg/kg [1]: 59%

CC(CCNc1n[nH]c2ccccc12)N1CCOCC1 (centres unmarked) [(153), 3-(3-Morpholinobutylamino)indazole]
LD50 (in vivo): 331 mg/kg | inhibition in vivo at 100 mg/kg [1]: 51%

CCN(CC)CCCn1nc(NCCCN2CCCCC2)c2cc(Cl)ccc21 [(96), 1-(3-Diethylaminopropyl)-3-(3-piperidinopropylamino)-5-chloroindazole]
LD50 (in vivo): 243 mg/kg | inhibition in vivo at 100 mg/kg [1]: 29%

CC1CCCC(C)N1CCCNc1nn(CCCN2CCOCC2)c2ccccc12 (centres unmarked) [(156), 1-(3-Morpholinopropyl)-3-[3-(2,6-dimethylpiperidino)propylamino]indazole]
LD50 (in vivo): 301 mg/kg | inhibition in vivo at 100 mg/kg [1]: 32%

Clc1ccc2[nH]nc(NCCCCCCN3CCCCC3)c2c1 [(56), 3-(6-Piperidinohexylamino)-5-chloroindazole]
LD50 (in vivo): 145 mg/kg | inhibition in vivo at 100 mg/kg [1]: 29%

CCN(CC)CCCNc1nn(CCCN(CC)CC)c2cccc(Cl)c12 [(89), 1-(3-Diethylaminopropyl)-3-(3-diethylaminopropylamino)-4-chloroindazole]
LD50 (in vivo): 214 mg/kg | inhibition in vivo at 100 mg/kg [1]: 30%

CCN(CC)CCCn1nc(N)c2cccc(I)c21 [(28), 1-(3-Diethylaminopropyl)-3-amino-7-iodoindazole]
LD50 (in vivo): 103 mg/kg | inhibition in vivo at 100 mg/kg [1]: 54%

CCN(CC)CCCn1nc(N)c2cc(I)ccc21 [(27), 1-(3-Diethylaminopropyl)-3-amino-5-iodoindazole]
LD50 (in vivo): 281 mg/kg | inhibition in vivo at 100 mg/kg [1]: 57%

CN1CCN(CCCNc2nn(CCCN3CCCC3)c3ccc(Cl)cc23)CC1 [(114), 1-(3-Pyrrolidinopropyl)-3-[3-(4-methylpiperazino)propylamino]-5-chloroindazole]
LD50 (in vivo): 299 mg/kg | inhibition in vivo at 100 mg/kg [1]: 30%

CCN(CC)CCCNc1nn(CCCN(CC)CC)c2c(O)cccc12 [(122), 1-(3-Diethylaminopropyl)-3-(3-diethylaminopropylamino)-7-hydroxyindazole]
LD50 (in vivo): 245 mg/kg | inhibition in vivo at 100 mg/kg [1]: 31%

CC(CCn1nc(N)c2cc(O)ccc21)N(C)C (centres unmarked) [(31), 1-(3-Dimethylaminobutyl)-3-amino-5-hydroxyindazole]
LD50 (in vivo): 241 mg/kg | inhibition in vivo at 100 mg/kg [1]: 35%

CCN(CC)CCCNc1n[nH]c2cc(Cl)ccc12 [(47), 3-(3-Diethylaminopropylamino)-6-chloroindazole]
LD50 (in vivo): 278 mg/kg | inhibition in vivo at 100 mg/kg [1]: 58%
